The source of these data is patent US5686613A, “Tridentate metal ligands of certain pyridine phosphonic acids” (priority 1996, dated 1997).

Each structure is given as a SMILES string. Read-outs that look alike come from different tables or passages of the source.

Series [1] can be described thus: Degradation of Fe(III) chelate ligand in H2S redox reaction in the presence of thiosulfate stabilizer. The class given is physicochemical. The settings on record: for NTA (M) (concentration remaining) / NTA, % Remaining: Fe(III)-NTA, pH 8.5, 32 g Na2S2O3 per liter. From the text:
Table 3 and FIG. 5 contain the data obtained from a run with the continuous glass reaction apparatus described above.

Series [2] in a line: Degradation of Fe(III)-2,6 PDPA in H2S redox reaction without stabilizer (uv-vis spectrophotometric analysis), pH 8.5 and 25° C. The settings on record: pH 8.5, 25° C., no stabilizer. The format is physicochemical. The procedure: Both ligands were evaluated in the iron chelate form.
The concentration of 2,6 PDPA was analyzed by the following uv-vis spectrophotometric measurements: to 1.0 mL of solution taken from the continuous reactor, 150 mg of NaOH in 15 mL water was added with stirring. The mixture was heated with a steam-bath for 2 hr, then allowed to stand at room temperature for 2 hr. […] The filtrate combined with the washings, was transferred to a 50 mL volumetric flask, and diluted to […] with 6M HCl. This solution was ready for uv-vis spectrophotometric analysis.

The conditions of series [3]: iron chelate, cited from earlier work.
The procedure of series [4]: (§1) The redox reaction was carried out in a continuous glass reaction apparatus as described in D. Chen, R. J. Motekaitis, A. E. Martell and D. McManus, Can. J. Chem., 71, 1524 (1993) which is incorporated herein by reference.
Experimental runs were also conducted with 2P6C, with and without K2 SO3 added as a stabilizer.

The procedure of series [5]: The degradation resistances of pyridine-2-phosphonic-6-carboxylic acid (2P6C) and pyridine-2,6-diphosphonic acid (2,6-PDPA), prepared by the synthesis schemes presented in FIGS. 2 and 3, respectively, were evaluated as described below. Both ligands were evaluated in the iron chelate form.
1. Degradation of Fe(III)-2P6C at pH 8.5 and 25° C. (Fe(III)0.018M, 2P6C 0.036 M; H2 S flow rate=2.0 mL/min.)
as §1
Preparation of iron-free sample. To 4.0 mL of solution taken from the continuous reactor, 100 mg of NaOH in 20 mL water were added dropwise with stirring. The mixture was heated to 70°-80° C. for 30 min. The Fe(OH)3 that precipitated was filtered off carefully and was washed several times with water. The filtrate was combined with the washings and was transferred to a 50 mL volumetric flask. The pH of the solution was adjusted with acid to 4.2, and then diluted with distilled water to 50 mL.
Operating conditions. Analytical column: I-SIL 5 C8, reverse phase 4.5×150 mm; Column temperature: ambient; mobile phase flow rate: 1.5 mL/min; Detector: UV at 275 nm, 0.20 AUFS; Sample volume: 20 microliter; Recorder: 10 mV full-scale; Chart speed: 0.5 cm/min. The mobile phase contained: 0.0010 M Cu(II), 60:40 H2 O: MeOH, 2% HOAc, 0.2% CH3 (CH2)15 (CH3)3 NBr, adjusted to pH 4.2 With NaOH solution.
Using the same test conditions described above, the degradation of nitrilotriacetic acid (NTA) was evaluated.
This is another data set of the same source.

Setting [6] is: h2s redox reactor, 100 h, 36000 µM, pH 8.5.

Take `O=P(O)(O)c1cccc(P(=O)(O)O)n1` [2,6-PDPA, pyridine-2,6-diphosphonic acid]: the “degradation in the presence of thiosulfate” value in series [1] (after 100 hr of operation, thiosulfate) is reported as “no detectable degradation was observed”. The “degradation” value in series [2] (100 hr, Fe(III) 0.0090 M, 2,6 PDPA 0.018 M) is given as “no significant degradation was observed”. In addition, the “degradation, estimated” value in series [2] (over 100 hr, 18000 µM) is given as “less than 5%”.

Turning to `O=C(O)c1cccc(C(=O)O)n1` [2,6-pyridinedicarboxylic acid], the “precipitation of ferric hydroxide from ferric chelate” value in series [3] (normal pH of the process) is “unacceptable precipitation of ferric hydroxide”. In addition, in series [3], the “resistance to catalyst degradation” value is “good resistance to catalyst degradation”.

With `O=C(O)c1cccc(P(=O)(O)O)n1` [2P6C, pyridine-2-phosphonic-6-carboxylic acid], the “degradation in the presence of thiosulfate” value in series [1] was “no detectable degradation was observed”. The “2P6C % Remaining” value in series [4] (0 min) is 100.0%; in series [4] (h2s reactor, 5% k2so3, 2 h) it was 100.0%; in series [4] (h2s reactor, 5% k2so3, 20 h) it was 97.7%; in series [4] (h2s reactor, 5% k2so3, 44 h), 97.6%; in series [4] (h2s reactor, 5% k2so3, 68 h), 97.4%; in series [4] (h2s reactor, 5% k2so3, 92 h), 98.9%. Besides, the “2P6C % Remaining” value in series [5] (0 min, 36000 uM, pH 8.5) stood at 100.0%; in series [5] (h2s redox reactor, 25 h, 36000 µM, pH 8.5) it was 94.4%; in series [5] (h2s redox reactor, 50 h, 36000 µM, pH 8.5), 86.1%; in series [5] (h2s redox reactor, 84 h, 36000 µM, pH 8.5) it was 83.3%; in series [5] (setting [6]), 80.6%. Moreover, the “degradation compared with NTA” value in series [5] is given as “degrades much more slowly than NTA”. Besides, in series [5] (setting [6]), the “2P6C lost after redox reaction” value is “about 20%”. In series [5] (pH 8.5), the “degradation during the redox reaction” value is given as “degrades very slowly”. For the same molecule, the “effect of hydroxylation/degradation on the process” value in series [5] (pH 8.5) is on record as “no deleterious effect on the process is observed”.

In the case of `O=C(O)CN(CC(=O)O)CC(=O)O` [NTA, nitrilotriacetic acid], the “degradation with thiosulfate” value in series [1] is recorded as “much slower when thiosulfate is added”. Moreover, in series [1], the “rate of degradation with thiosulfate” value is “still measurable”. In addition, the “NTA (M) (concentration remaining)” value in series [1] (0 hr) is given as 0.0362 M; in series [1] (14.0 hr) it was 0.0344 M; in series [1] (26.0 hr), 0.0333 M; in series [1] (39.0 hr), 0.0320 M; in series [1] (50.0 hr), 0.0317 M; in series [1] (66.0 hr), 0.0306 M. Besides, the “NTA (M) (concentration remaining)” value in series [1] (80.0 hr) was 0.0297 M; in series [1] (99.0 hr) it was 0.0293 M. In addition, the “NTA, % Remaining” value in series [1] (0 hr) stood at 100.0%; in series [1] (14.0 hr) it was 95.0%; in series [1] (26.0 hr), 92.0%; in series [1] (39.0 hr), 88.4%; in series [1] (50.0 hr), 87.6%; in series [1] (66.0 hr), 84.5%. Moreover, the “NTA, % Remaining” value was found to be 82.0% in series [1] (80.0 hr); 80.9% in series [1] (99.0 hr); 100.0% in series [5] (0 min, pH 8.5); 75.7% in series [5] (h2s redox reactor, 12 h, pH 8.5); 65.7% in series [5] (h2s redox reactor, 20 h, pH 8.5); 52.4% in series [5] (h2s redox reactor, 30 h, pH 8.5). Also, the “NTA, % Remaining” value in series [5] (h2s redox reactor, 40 h, pH 8.5) was determined as 49.4%; in series [5] (h2s redox reactor, 64 h, pH 8.5), 32.9%; in series [5] (h2s redox reactor, 77 h, pH 8.5), 26.2%.
